Legend:
[1] = reversed-phase LC retention time (C18, 15 min MeOH gradient); higher = more hydrophobic / later elution
[2] = collision cross section (TIMS, N2 drift gas) of the primary ion; higher = larger gas-phase ion size
[3] = ionization mode: ESI+, ion species: [M+H]+
[4] = ionization mode: ESI-, ion species: [M-H]-

SMILES	reversed-phase LC retention time [1, 3]	reversed-phase LC retention time [1, 4]	collision cross section [2, 3]	collision cross section [2, 4]
CCCCC(=O)N(Cc1ccc(-c2ccccc2-c2nn[nH]n2)cc1)C(C(=O)O)C(C)C (stereo unspecified) [Valsartan]	14.4 min	11.8 min	204.42 Å²	203.89 Å²
C[C@H](CCC(=O)O)[C@H]1CC[C@H]2[C@@H]3CC[C@@H]4C[C@H](O)CC[C@]4(C)[C@H]3C[C@H](O)[C@]12C [Deoxycholic acid]	–	15.8 min	–	203 Å²
C[C@]12C=CC(=O)C=C1CC[C@@H]1[C@@H]2[C@@H](O)C[C@@]2(C)[C@H]1CC[C@]2(O)C(=O)CO [Prednisolone]	–	11.9 min	–	182.17 Å²
C[C@@H]1NC(C)(C)CO[C@@]1(O)c1cccc(Cl)c1 [(S,S)-Hydroxybupropion]	9.89 min	13.5 min	159.75 Å²	159.63 Å²
CC1CN(C2CCCCCCCCCCC2)CC(C)O1 (stereo unspecified) [Dodemorph]	13.3 min	–	175.75 Å²	–
CN1CCCC1c1cccnc1 (stereo unspecified) [Nicotine]	2.26 min	–	135.54 Å²	–
CC(=NC#N)N(C)Cc1ccc(Cl)nc1 [Acetamiprid]	9.29 min	9.38 min	153.22 Å²	148.19 Å²
CC12CC1(C)C(=O)N(c1cc(Cl)cc(Cl)c1)C2=O (stereo unspecified) [Procymidone]	–	15 min	–	172.16 Å²
CO/N=C(/C(=O)O)c1ccccc1CO/N=C(\C)c1cccc(C(F)(F)F)c1	15.5 min	–	186.57 Å²	–
Nc1nnc(-c2cccc(Cl)c2Cl)c(N)n1 [Lamotrigine]	9.33 min	–	153.91 Å²	–
C/N=C(/NCC1CCOC1)N[N+](=O)[O-] (stereo unspecified) [Dinotefuran]	6.27 min	6.46 min	141.96 Å²	146.7 Å²
O=S(=O)(O)c1ccc2ccc(S(=O)(=O)O)cc2c1 [2,7-Naphthalenedisulfonic acid]	–	0.97 min	–	159.15 Å²
COc1cc(C2c3cc4c(cc3C(OC3OC5COC(C)OC5C(O)C3O)C3COC(=O)C23)OCO4)cc(OC)c1O (stereo unspecified) [Etoposide]	11.6 min	–	250.37 Å²	–
CNC(=O)Oc1cccc2c1OC(C)(C)C2 [Carbofuran]	11.7 min	–	147.19 Å²	–
Cc1c(C(C)C)c(=O)n(-c2ccccc2)n1C [Propyphenazone]	12.3 min	–	153.65 Å²	–
C#C[C@]1(O)C=C[C@H]2[C@@H]3CCC4=CC(=O)CC[C@@H]4[C@H]3CC[C@@]21CC [Gestoden]	14 min	–	181.55 Å²	–
CCCCN(C=O)CCCC [N,N-Di-n-butylformamide]	13.5 min	–	141.17 Å²	–
O=C(O)c1ccc(Cl)cc1Cl [2,4-Dichlorobenzoic acid]	–	6.78 min	–	124.87 Å²
CC(C)(C)CC(C)(C)c1ccc(Nc2ccc(C(C)(C)CC(C)(C)C)cc2)cc1 [N,N-Bis(4-tert-octylphenyl)amine]	20.2 min	–	220.04 Å²	–
CCCN(CC)CC1COC2(CCC(C(C)(C)C)CC2)O1 (stereo unspecified) [Spiroxamine]	14.2 min	–	177.53 Å²	–
CC(=O)N1CCN(c2ccc(OC[C@H]3CO[C@](Cn4ccnc4)(c4ccc(Cl)cc4Cl)O3)cc2)CC1 [Ketoconazole]	13.2 min	–	216.99 Å²	–
Oc1ccc(C(c2ccc(O)cc2)(C(F)(F)F)C(F)(F)F)cc1 [Bisphenol AF]	–	14.8 min	–	165.55 Å²
c1ccc(/N=N/c2ccccc2)cc1 [Azobenzene]	13.1 min	–	138.4 Å²	–
Cc1ccc(NC(=O)N(C)C)cc1Cl [Chlorotoluron]	12.5 min	–	147.58 Å²	–

From the supplement of paper PMC12613149
